Assay results reported in US20110172433A1, “NOVEL IMINO DERIVATIVES, METHODS FOR PRODUCING THE SAME AND INSECTICIDES CONTAINING THE SAME” (priority 2008, published 2011).

Columns and labels:
[1] = system: cotton aphid, green peach aphid, greenhouse whitefly, two-spotted spider mite; conditions: in vivo
greenhouse whitefly = assay: Greenhouse whitefly controlling effect (cucumber dip); format: in vivo, Trialeurodes vaporariorum; conditions: wettable powder per Formulation Example 2, active ingredient 100 μg/ml, 25° C., after 120 hours
Experimental: This was allowed to be inhabited with 20 adult insects of the greenhouse whitefly, covered with the stopper, and allowed to stand in a room whose temperature was constant at 25° C. After 120 hours, the number of viable insects was counted.
The overground part of the 1-leaf stage cucumber was dipped in a 100 μg/ml treatment solution obtained by a 5000-fold dilution with water of the prepared wettable powder, and air-dried, and then transferred to a plastic container having a stopper. This was allowed to be inhabited with 20 adult insects of the greenhouse whitefly, covered with the stopper, and allowed to stand in a room whose temperature was constant at 25° C. After 120 hours, the number of viable insects was counted.

Structure (SMILES)	pest controlling effects [1]	lethality (greenhouse whitefly) [%]
O=C(N=C1SCCN1Cc1ccc(Cl)nc1)OCC1CC1 [Compound 139]	excellent pest controlling effects	
CCOC(=O)N=C1SCCN1Cc1ccc(Cl)nc1 [Compound 113]	excellent pest controlling effects	
CCCCOC(=O)N=C1SCCN1Cc1ccc(Cl)nc1 [Compound 128]	excellent pest controlling effects	
O=C(N=C1SCCN1Cc1ccc(Cl)nc1)C1CC1 [Compound 92]	excellent pest controlling effects	
CCCOC(=O)N=C1SCCN1Cc1ccc(Cl)nc1 [Compound 43]	excellent pest controlling effects	
O=C(CCl)N=C1SCCN1Cc1ccc(Cl)nc1 [Compound 73]	excellent pest controlling effects	
COCCOC(=O)N=C1SCCN1Cc1ccc(Cl)nc1 [Compound 118]	excellent pest controlling effects	
CONC(=O)N=C1SCCN1Cc1ccc(Cl)nc1 [Compound 106]	excellent pest controlling effects	
O=C(N=C1SCCN1Cc1ccc(Cl)nc1)OCC(F)F [Compound 115]	excellent pest controlling effects	
O=C(N=C1SCCN1Cc1ccc(Cl)nc1)C(Cl)(Cl)Cl [Compound 5]	excellent pest controlling effects	
O=C(N=C1SCCN1Cc1ccc(Cl)nc1)OCCF [Compound 114]	excellent pest controlling effects	
CC(C)=CCOC(=O)N=C1SCCN1Cc1ccc(Cl)nc1 [Compound 135]	excellent pest controlling effects	
CCCCCOC(=O)N=C1SCCN1Cc1ccc(Cl)nc1 [Compound 136]	excellent pest controlling effects	
O=C(N=C1SCCN1Cc1ccc(Cl)nc1)C1CC1(F)F (stereo not shown) [Compound 103]	excellent pest controlling effects	
CSCCOC(=O)N=C1SCCN1Cc1ccc(Cl)nc1 [Compound 119]	excellent pest controlling effects	
O=C(N=C1SCCN1Cc1ccc(Cl)nc1)OCCCl [Compound 45]	excellent pest controlling effects	
O=C(N=C1SCCN1Cc1ccc(Cl)nc1)OCCCF [Compound 122]	excellent pest controlling effects	
O=C(N=C1SCCN1Cc1ccc(Cl)nc1)OC1CCOCC1 [Compound 146]	excellent pest controlling effects	
CCC(C)OC(=O)N=C1SCCN1Cc1ccc(Cl)nc1 (stereo not shown) [Compound 130]	excellent pest controlling effects	
COCC(=O)N=C1SCCN1Cc1ccc(Cl)nc1 [Compound 78]	excellent pest controlling effects	
CC(=O)N=C1SCCN1Cc1ccc(Cl)nc1 [Compound 72]	excellent pest controlling effects	
CSCCC(=O)N=C1SCCN1Cc1ccc(Cl)nc1 [Compound 90]	excellent pest controlling effects	
O=C(N=C1SCCN1Cc1ccc(Cl)nc1)C(F)F [Compound 76]	excellent pest controlling effects	
O=C(/N=C1\SCCN1Cc1ccc(Cl)nc1)C(F)(F)F [Formula (12)]		25
CC(C)OC(=O)N=C1SCCN1Cc1ccc(Cl)nc1 [Compound 44]	excellent pest controlling effects	
CC(C)COC(=O)N=C1SCCN1Cc1ccc(Cl)nc1 [Compound 129]	excellent pest controlling effects	
C=CCOC(=O)N=C1SCCN1Cc1ccc(Cl)nc1 [Compound 126]	excellent pest controlling effects	
O=C(N=C1SCCN1Cc1ccc(Cl)nc1)OCC1CCOC1 (stereo not shown) [Compound 144]	excellent pest controlling effects	
